This is an account of results in article PMC7038975 (Nucleic Acids Research, 2019).

The test has as its target dihydropyrimidinase (DHP) (Homo sapiens, UniProt Q14117). The experiment in a line: HPLC assay of […],6-dihydrouracil. Type of test: biochemical.

Sequence of dihydropyrimidinase (DHP) (Q14117 whole entry): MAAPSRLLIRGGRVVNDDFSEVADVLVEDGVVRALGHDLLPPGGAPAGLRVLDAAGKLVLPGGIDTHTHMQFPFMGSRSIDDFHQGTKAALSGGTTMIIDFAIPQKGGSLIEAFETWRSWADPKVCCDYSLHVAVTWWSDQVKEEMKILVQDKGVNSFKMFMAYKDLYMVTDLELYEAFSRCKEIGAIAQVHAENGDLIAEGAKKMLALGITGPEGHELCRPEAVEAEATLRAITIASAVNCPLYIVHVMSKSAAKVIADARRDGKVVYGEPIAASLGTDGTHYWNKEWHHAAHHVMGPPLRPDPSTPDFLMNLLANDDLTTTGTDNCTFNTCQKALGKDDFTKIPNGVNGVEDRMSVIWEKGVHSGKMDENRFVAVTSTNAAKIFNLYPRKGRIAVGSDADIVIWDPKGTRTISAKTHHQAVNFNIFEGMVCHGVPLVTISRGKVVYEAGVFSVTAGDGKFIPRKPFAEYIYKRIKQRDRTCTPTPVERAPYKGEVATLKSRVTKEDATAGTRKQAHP

Compound `O=C1c2c(O)cc(O)cc2O[C@H](c2cc(O)c(O)c(O)c2)[C@H]1O` [dihydromyricetin] returned an IC50 of roughly 6 µM.

By IC50 is commonly meant the concentration that gives 50% inhibition.
